Measurements reported in publication PMC10338423, “Synthesis and preclinical evaluation of a novel fluorine-18 labeled small-molecule PET radiotracer for imaging of CXCR3 receptor in mouse models of atherosclerosis” (EJNMMI Research, 2023).

What was measured:
human CXCR3 = molecular target: human CXCR3; parameters: method as in PMID 24174496, PMID 25576486; settings: cited from earlier work
CXCR3B = molecular target: T1, CXCR3B (Homo sapiens, UniProt P49682); assay: Competition binding assay with [125I]CXCL10 on membranes of CXCR3B-transfected HEK293 cells; settings: 80 pM 125I-CXCL10, Cheng-Prusoff
T1 construct: crude membranes
T1 sequence (P49682 1-415 isoform P49682-2): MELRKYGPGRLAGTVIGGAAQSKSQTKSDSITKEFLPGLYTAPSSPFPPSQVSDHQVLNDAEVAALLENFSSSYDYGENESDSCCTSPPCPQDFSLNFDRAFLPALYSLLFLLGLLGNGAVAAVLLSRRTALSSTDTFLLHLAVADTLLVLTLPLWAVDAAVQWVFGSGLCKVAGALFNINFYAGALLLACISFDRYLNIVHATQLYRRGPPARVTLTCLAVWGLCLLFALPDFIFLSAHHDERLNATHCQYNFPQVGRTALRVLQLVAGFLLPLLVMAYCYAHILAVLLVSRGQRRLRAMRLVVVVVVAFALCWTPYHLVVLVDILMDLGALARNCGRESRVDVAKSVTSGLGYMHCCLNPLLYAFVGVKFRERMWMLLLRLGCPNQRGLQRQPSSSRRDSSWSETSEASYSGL
Description: (§1) The equilibrium inhibition constants (Ki) value of 1 at CXCR3 receptor was measured through competition binding assay using NBI74330 (Tocris Bioscience, Bristol, UK), an antagonist of CXCR3 receptor, [^125I]CXCL10 (ViTrax Inc., Placentia, CA) and CXCR3 transfected human embryonic kidney (HEK) 293 cells. CXCR3 has two major variants, CXCR3A and CXCR3B, with distinctive biological roles, so two types of HEK293 cells containing each CXCR3 variant were prepared. Before the cell-binding assay, two cDNA constructs containing CXCR3 transcript variant A (CXCR3A, GenBank accession No. NM_001504; GenScript) and CXCR3 transcript variant B (CXCR3B, GenBank accession No. NM_001142797; GenScript) and HEK293 cells were purchased from GenScript Biotech (Piscataway, NJ) and ATCC (Manassas, VA), respectively. Then the cDNA constructs were transfected to HEK293 cells, and the transfected cells were cultured to get enough amount for the cell-binding assay. […] The IC50 value of 1 was measured based on the regression plot between the […] radioligand and the different concentrations of 1. […]
(§2) Radioligand binding was performed using crude HEK293 membranes overexpressing CXCR3A or CXCR3B as previously described. […] The Ki values of each competitive antagonist for specific ^125I-CXCL10 binding sites were calculated using the method of Cheng and Prusoff, as previously described. […]

CXCR3 = system: CXCR3; parameters: method as in PMID 24486132; settings: read-out: binding affinity IC50; cited from earlier work
CXCR3A = molecular target: T2, CXCR3A (Homo sapiens, UniProt P49682); assay: Competition binding assay with [125I]CXCL10 on membranes of CXCR3A-transfected HEK293 cells; settings: 80 pM 125I-CXCL10, Cheng-Prusoff
T2 construct: crude membranes
T2 sequence (P49682 1-368): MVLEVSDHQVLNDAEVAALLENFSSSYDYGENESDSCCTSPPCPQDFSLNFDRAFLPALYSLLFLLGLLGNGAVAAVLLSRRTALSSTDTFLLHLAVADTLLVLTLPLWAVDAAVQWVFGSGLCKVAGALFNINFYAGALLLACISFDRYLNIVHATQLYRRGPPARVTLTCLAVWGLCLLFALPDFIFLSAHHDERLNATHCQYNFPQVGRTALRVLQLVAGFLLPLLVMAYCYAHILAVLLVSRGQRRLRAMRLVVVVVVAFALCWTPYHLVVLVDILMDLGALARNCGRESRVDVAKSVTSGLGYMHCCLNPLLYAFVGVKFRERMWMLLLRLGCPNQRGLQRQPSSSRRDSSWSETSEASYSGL
Description: as §1, §2

| Compound | Kd (human CXCR3) [pM] | Ki (CXCR3B) [pM] | IC50 (CXCR3) [pM] | Ki (CXCR3A) [pM] |
| --- | --- | --- | --- | --- |
| CCNC(=O)c1cnc(N2CCN(C3CCN(Cc4ccc(Cl)cc4)CC3)[C@@H](CC)C2)c(Cl)c1 [VUF11211] | 650 | – | – | – |
| CC[C@H]1CN(c2ncc(-c3nnco3)cc2Cl)CCN1C1CCN(Cc2ccc(Cl)cc2F)CC1 [compound 1, (S)-2-(5-chloro-6-(4-(1-(4-chloro-2-fluorobenzyl)piperidin-4-yl)-3-ethylpiperazin-1-yl)pyridin-3-yl)-1,3,4-oxadiazole] | – | 310 ± 20 | 800 | 810 ± 20 |
